Paper PMC5967236 (Angewandte Chemie (International ed. in English), 2017)

Legend:
[1] = test system: IKZF family of linage specific transcription factors; settings: cited from earlier work
[2] = test system: IKZF family of linage specific transcription factors; test: activity against IKZF family transcription factors; format: cell-based
[3] = target: T1, BRD7 (Homo sapiens, UniProt Q9NPI1); test: BRD7 immunoblot in MOLM-13 cells; settings: MOLM-13, 4hr, western blot
T1 sequence (Q9NPI1 1-651): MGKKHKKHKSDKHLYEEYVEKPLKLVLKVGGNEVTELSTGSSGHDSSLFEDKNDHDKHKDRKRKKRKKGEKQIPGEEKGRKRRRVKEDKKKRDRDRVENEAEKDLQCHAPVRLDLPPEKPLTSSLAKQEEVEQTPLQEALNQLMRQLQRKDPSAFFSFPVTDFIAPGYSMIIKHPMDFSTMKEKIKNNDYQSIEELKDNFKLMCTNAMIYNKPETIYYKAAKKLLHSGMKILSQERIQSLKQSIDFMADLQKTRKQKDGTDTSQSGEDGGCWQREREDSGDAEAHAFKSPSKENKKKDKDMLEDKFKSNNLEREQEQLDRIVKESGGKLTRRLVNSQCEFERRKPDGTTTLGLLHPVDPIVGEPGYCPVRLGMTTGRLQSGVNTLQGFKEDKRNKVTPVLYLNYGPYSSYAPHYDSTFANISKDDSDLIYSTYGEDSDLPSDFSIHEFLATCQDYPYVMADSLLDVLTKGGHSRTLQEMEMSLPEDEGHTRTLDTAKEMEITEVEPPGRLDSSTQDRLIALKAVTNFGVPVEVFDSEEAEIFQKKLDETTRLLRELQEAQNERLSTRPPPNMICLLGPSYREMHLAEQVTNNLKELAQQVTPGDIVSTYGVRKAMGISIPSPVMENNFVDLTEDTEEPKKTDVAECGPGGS

[4] = target: BRD4 (Homo sapiens, UniProt O60885); test: BRD4 immunoblot in MOLM-13 cells; settings: MOLM-13, 4hr, western blot
[5] = test system: all cellular proteins in MOLM-13 cells; test: whole-cell lysate proteomics; format: cell-based, human; settings: 100 nM for 2 hours
[6] = test system: MM.1S line; test: activity in MM.1S line; format: cell-based; settings: multiple myelome derived line
[7] = test system: MOLM-13; test: viability of MOLM-13; format: cell-based, human; settings: MOLM-13 transduced with wild type BRD9
[8] = test system: human AML lines (EOL-1, MOLM-13, MV4;11); test: viability of human AML lines, 7 days; format: cell-based

## Cc1sc2c(c1C)C(c1ccc(Cl)cc1)=N[C@@H](CC(=O)NCCCCNC(=O)COc1cccc3c1C(=O)N(C1CCC(=O)NC1=O)C3=O)c1nnc(C)n1-2 (stereo partly shown) [dBET-1]
[1]
  activity against IKZF family, earlier report: not previously observed

## COc1cc(-c2cn(C)c(=O)c3cnccc23)cc(OC)c1CN(C)CC(=O)NCCOCCOCCNc1cccc2c1C(=O)N(C1CCC(=O)NC1=O)C2=O (stereo not shown) [dBRD9]
[2]
  activity against IKZF family: retain activity
[3]
  off target degradation activity on BRD7: not detectable
[4]
  off target degradation activity on BRD4: not detectable
[5]
  change in BRD4 or BRD7 levels: no significant change
  difference in levels of other proteins (99% of proteins): less than 0.30 fold
[6]
  activity in MM.1S: dBRD9 sensitive
[7]
  sensitivity with viral expression of exogenous wild type BRD9: shifted sensitivity, but to an intermediate degree
[8]; EOL-1, MOLM-13, MV4;11, 7 days
  anti-proliferative effect: potent anti-proliferative effect
[8]; human AML lines
  half-maximal anti-proliferative concentration: low nanomolar
